The IC50 is the concentration at which inhibition is half-maximal. Read a high IC50 as lower potency. For orientation: ED50 means the dose at which the effect has come halfway, by size or by number of responders. In general, inhibition refers to the change of the read-out against control, counted positive when it falls. Read a high inhibition as a response far below the control.

Counter-ions that a name gives are not always drawn. Like-named read-outs stand apart in the source and are kept apart here. Where only a bound is given, the exact number is not on record here.

Our source for the IC50, ED50 and inhibition values is US20030109522A1, “Ophthalmologic treatment methods using selective iNOS inhibitors” (priority 2001, published 2003).

The subject of experiment [1] is nitrite production in human cartilage explants. The experiment can be described thus: Human cartilage explant assay (IL-1 induced nitrite production). Type of experiment: cell-based. To be noted: inhibition of nitrite production, IL-1 stimulated explants. The procedure: Human Cartilage Explant Assay
Bone pieces are rinsed twice with Dulbecco's Phosphate Buffered Saline (GibcoBRL) and once with Dulbecco's Modified Eagles Medium (GibcoBRL) and placed into a petri dish with phenol red free Minimum Essential Medium (MEM) (GibcoBRL). Cartilage was cut into small explants of approximately 15-45 mg in weight and one or two explants per well are placed into either 96 or 48 well culture plates with 200-500 μL of culture media per well. The culture media was either a custom modification of Minimum Essential Medium(Eagle) with Earle's salts (GibcoBRL) prepared without L-Arginine, without L-Glutamine and without phenol red or a custom modification of serumless Neuman and Tytell (GibcoBRL) medium prepared without L-arginine, without insulin, without ascorbic acid, without L-glutamine and without phenol red. Both are supplemented before use with 100 μM L-Arginine (Sigma), 2 mM L-glutamine, 1×HL-1 supplement (BioWhittaker), […] ascorbic acid (Sigma) and 150 pg/ml recombinant human IL-1[…] (RD Systems) to induce nitric oxide synthase. Compounds are then added in 10 μL aliquots and the explants incubated at 37° C. with 5% CO2 for 18-24 hours. The day old supernatant is then discarded and replaced with fresh culture media containing recombinant human IL-1 ? and compound and incubated for another 20-24 hours. […] All samples are done in quadruplicate. Unstimulated controls are cultured in media in the absence of recombinant human IL-1[…]. IC50 values (Table I) are determined from plotting the percent inhibition of nitrite production at six different concentrations of inhibitor.

Experiment [2] concerns the target T1, human endothelial constitutive NOS (hecNOS) (Homo sapiens, UniProt P29474).
T1 construct: made in house; host or cells: Sf9 insect cells, baculovirus vector
As to the kind of experiment: Citrulline assay for nitric oxide synthase, hecNOS. Type of experiment: biochemical. Particulars: averages across all experiments and all lots; 30 μM L-arginine.
Experimental: (§3) Citrulline Assay for Nitric Oxide Synthase
(§4) To measure NOS activity, 10 μL of enzyme is added to 40 μL of 50 mM Tris (pH 7.6) in the presence or absence of test compounds and the reaction initiated by the addition of 50 μL of a reaction mixture containing 50 mM Tris (pH 7.6), 2.0 mg/mL bovine serum albumin, 2.0 mM DTT, 4.0 mM CaCl2, 20 μM FAD, 100 μM tetrahydrobiopterin, 0.4 mM NADPH and 60 μL-arginine containing 0.9 μCi of L-[2,3-^3H]-arginine. The final concentration of L-arginine in the assay is 30 μM. For hecNOS or hncNOS, calmodulin is included at a final concentration of 40-100 nM. Following incubation at 37° C. for 15 minutes, the reaction is terminated by addition of 400 μL of a suspension (1 part resin, 3 parts buffer) of Dowex 50W X-8 cation exchange resin in a stop buffer containing 10 mM EGTA, 100 mM HEPES, pH 5.5 and 1 mM L-citrulline. After mixing the resin is allowed to settle and L-[2,3-^3H]-Citrulline formation is determined by counting aliquots of the supernatant with a liquid scintillation counter.

Experiment [3] addresses T2, human neuronal constitutive NOS (hncNOS) (Homo sapiens, UniProt P29475).
T2 construct: made in house; host or cells: Sf9 insect cells, baculovirus vector
The experiment can be described thus: Citrulline assay for nitric oxide synthase, hncNOS. Type of experiment: biochemical. Particulars: averages across all experiments and all lots; 30 μM L-arginine.
Experimental: as §3, §4

In experiment [4] the test system is LPS-induced increase in plasma nitrite/nitrate levels. The experiment can be described thus: In vivo assay, endotoxin-treated rats. Particulars: administered orally, plasma nitrite/nitrate 5 hours post-treatment. The procedure:
Plasma nitrite/nitrate levels can be determined 5 hours post-treatment.

For experiment [5], the target named is T3, Human inducible NOS (hiNOS) (Homo sapiens, UniProt P35228).
T3 construct: made in house; host or cells: Sf9 insect cells, baculovirus vector
As to the kind of experiment: Citrulline assay for nitric oxide synthase, hiNOS. Format: biochemical. To be noted: averages across all experiments and all lots; 30 μM L-arginine.
Experimental: as §3, §4

In the next experiment the target is T4, hncNOS (Homo sapiens, UniProt P29475).
T4 construct: made in house; host or cells: Sf9 insect cells, baculovirus vector
The experiment can be described thus: Assay for time dependent inhibition, hncNOS. Particulars: 21 min preincubation. Type of experiment: biochemical. The procedure: (§1) Assay for Time Dependent Inhibition
(§2) Aliquots (10 μL) are removed at 0, 10,21 and 60 minutes and immediately added to a citrulline assay enzyme reaction mixture containing L-[2,3-^3H]-arginine and a final L-arginine concentration of 30 μM in a final volume of 100 μL. The reaction is allowed to proceed for 15 minutes at 37° C. and terminated by addition of stop buffer and chromatography with Dowex 50W X-8 cation exchange ion exchange resin as described for the citrulline NOS assay. The % inhibition of NOS activity by an inhibitor was taken as the percent inhibition in activity compared to control enzyme preincubated for the same time in the absence of inhibitor.

The target in the next experiment is T5, hiNOS (Homo sapiens, UniProt P35228).
T5 construct: made in house; host or cells: Sf9 insect cells, baculovirus vector
The experiment can be described thus: Assay for time dependent inhibition, hiNOS. Format: biochemical. The procedure: as §1, §2

In another experiment the target is T6, hecNOS (Homo sapiens, UniProt P29474).
T6 construct: made in house; host or cells: Sf9 insect cells, baculovirus vector
As to the kind of experiment: Assay for time dependent inhibition, hecNOS. Type of experiment: biochemical. The procedure: as §1, §2

Setting [6] is: Rattus norvegicus, po, read-out: ED50.

T3 sequence (P35228 whole entry): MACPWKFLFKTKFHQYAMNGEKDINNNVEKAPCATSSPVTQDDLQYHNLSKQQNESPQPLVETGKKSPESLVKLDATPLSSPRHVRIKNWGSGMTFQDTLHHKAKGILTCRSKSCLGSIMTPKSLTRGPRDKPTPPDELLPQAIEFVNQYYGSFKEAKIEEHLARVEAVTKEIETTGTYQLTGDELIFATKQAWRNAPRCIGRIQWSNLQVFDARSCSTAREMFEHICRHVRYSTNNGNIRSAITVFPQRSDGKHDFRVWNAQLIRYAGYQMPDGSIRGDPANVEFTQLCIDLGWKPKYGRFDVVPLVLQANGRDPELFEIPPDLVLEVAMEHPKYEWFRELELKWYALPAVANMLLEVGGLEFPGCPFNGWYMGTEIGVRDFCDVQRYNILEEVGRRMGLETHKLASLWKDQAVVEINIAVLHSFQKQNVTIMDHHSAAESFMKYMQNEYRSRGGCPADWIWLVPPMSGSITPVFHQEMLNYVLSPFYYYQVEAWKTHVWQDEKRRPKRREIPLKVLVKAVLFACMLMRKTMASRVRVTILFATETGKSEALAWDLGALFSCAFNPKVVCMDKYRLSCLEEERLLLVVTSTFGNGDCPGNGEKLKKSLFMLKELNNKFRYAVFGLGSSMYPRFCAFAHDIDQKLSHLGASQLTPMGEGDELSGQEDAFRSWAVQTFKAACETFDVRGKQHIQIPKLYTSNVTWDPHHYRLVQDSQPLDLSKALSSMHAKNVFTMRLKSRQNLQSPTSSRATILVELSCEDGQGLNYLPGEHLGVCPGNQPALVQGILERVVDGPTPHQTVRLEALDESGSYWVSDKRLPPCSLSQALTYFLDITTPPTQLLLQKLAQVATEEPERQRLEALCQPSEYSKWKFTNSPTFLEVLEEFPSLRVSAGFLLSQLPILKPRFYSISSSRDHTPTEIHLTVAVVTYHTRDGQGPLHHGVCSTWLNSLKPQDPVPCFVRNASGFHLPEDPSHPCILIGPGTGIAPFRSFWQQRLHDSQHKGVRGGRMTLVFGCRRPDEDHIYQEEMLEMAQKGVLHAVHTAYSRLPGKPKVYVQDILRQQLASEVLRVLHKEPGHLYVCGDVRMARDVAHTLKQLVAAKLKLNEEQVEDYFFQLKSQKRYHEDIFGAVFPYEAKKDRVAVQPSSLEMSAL
T1 sequence (P29474 2-1203): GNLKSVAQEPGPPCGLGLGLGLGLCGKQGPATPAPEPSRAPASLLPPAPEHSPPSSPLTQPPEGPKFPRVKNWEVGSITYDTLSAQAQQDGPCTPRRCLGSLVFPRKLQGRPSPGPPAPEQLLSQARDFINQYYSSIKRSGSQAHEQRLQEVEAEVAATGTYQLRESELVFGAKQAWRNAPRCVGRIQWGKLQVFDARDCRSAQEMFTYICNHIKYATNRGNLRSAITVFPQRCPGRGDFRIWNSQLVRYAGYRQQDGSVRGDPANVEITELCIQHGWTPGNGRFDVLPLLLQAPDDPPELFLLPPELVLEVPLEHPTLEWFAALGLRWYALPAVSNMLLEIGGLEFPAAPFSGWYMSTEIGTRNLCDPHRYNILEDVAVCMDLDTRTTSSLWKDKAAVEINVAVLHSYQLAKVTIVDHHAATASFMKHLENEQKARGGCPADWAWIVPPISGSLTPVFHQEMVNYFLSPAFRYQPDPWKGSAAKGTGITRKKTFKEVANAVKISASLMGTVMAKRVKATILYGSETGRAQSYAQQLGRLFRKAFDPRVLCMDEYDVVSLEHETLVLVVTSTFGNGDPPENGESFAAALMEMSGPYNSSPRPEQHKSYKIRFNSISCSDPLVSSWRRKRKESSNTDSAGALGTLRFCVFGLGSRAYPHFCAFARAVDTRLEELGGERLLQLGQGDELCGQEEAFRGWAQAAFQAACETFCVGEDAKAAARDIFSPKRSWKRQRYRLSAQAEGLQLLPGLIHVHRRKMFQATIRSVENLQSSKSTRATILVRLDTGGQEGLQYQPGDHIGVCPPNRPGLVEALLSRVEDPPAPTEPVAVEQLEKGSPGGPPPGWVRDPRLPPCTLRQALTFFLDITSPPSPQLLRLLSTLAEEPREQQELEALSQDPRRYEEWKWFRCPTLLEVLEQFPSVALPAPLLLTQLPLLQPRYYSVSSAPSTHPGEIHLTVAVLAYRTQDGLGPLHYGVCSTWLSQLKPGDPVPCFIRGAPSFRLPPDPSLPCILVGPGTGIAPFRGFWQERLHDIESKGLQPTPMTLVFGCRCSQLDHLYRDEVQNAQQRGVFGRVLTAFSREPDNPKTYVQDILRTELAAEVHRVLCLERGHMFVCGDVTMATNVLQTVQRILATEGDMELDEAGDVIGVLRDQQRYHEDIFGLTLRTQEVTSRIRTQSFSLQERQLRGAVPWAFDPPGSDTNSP
T2 sequence (P29475 whole entry): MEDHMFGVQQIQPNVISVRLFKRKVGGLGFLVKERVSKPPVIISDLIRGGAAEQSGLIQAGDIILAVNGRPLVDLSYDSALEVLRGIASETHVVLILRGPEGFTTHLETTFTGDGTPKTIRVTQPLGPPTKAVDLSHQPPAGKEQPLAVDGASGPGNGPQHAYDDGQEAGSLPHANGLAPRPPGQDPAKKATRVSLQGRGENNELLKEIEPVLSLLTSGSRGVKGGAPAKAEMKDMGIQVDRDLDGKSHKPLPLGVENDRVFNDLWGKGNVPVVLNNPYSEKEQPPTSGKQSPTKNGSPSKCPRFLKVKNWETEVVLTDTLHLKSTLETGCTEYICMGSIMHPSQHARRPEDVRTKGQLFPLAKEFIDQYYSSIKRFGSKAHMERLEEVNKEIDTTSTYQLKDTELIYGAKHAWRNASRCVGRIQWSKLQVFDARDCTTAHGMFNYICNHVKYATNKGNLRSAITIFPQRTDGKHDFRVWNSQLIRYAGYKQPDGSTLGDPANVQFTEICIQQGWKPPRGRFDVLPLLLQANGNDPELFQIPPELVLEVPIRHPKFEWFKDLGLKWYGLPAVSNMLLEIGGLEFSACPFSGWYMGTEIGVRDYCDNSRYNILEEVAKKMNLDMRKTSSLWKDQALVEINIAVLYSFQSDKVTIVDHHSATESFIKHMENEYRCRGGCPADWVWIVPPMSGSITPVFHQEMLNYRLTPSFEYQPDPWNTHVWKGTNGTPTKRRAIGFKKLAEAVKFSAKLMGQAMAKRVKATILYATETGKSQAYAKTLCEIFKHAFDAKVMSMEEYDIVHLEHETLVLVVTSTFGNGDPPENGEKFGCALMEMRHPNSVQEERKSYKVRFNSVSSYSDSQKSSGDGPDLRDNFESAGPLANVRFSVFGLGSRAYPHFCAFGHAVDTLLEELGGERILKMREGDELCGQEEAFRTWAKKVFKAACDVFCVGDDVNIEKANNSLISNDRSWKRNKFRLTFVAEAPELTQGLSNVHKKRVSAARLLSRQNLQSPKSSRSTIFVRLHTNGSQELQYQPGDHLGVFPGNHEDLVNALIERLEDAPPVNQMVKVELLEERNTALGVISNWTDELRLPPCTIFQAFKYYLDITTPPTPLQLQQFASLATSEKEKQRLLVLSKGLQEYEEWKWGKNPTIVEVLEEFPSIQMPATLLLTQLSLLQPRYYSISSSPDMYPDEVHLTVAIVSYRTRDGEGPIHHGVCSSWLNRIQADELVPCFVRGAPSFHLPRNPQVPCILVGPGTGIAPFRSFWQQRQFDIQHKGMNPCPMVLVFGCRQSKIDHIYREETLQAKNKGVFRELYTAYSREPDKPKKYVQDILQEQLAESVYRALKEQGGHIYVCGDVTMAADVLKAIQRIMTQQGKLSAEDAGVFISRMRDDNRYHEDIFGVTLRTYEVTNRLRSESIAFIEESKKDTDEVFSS

The compound `CC(=N)NCC(F)=CCC[C@H](N)C(=O)O` (mixture of isomers) [Example B, (2S,5E/Z)-2-amino-6-fluoro-7-[(1-iminoethyl)amino]-5-heptenoic Acid, Dihydrochloride] returned an IC50 in experiment [1] (Homo sapiens) of 200 nM.

For `CC(=N)NC/C(F)=C\CCC(C)(N)C(=O)O` (racemic) [Example KK, (2R/S,5E)-2-amino-2-methyl-6-fluoro-7-[(1-iminoethyl)amino]-5-heptenoic Acid, Dihydrochloride], the IC50 in experiment [2] turned out to be 52 µM; in experiment [3] it was 13 µM; in experiment [5], 570 nM. Further, the ED50 in experiment [4] (setting [6]) was 0.3 mg/kg.

In experiment [1] (Homo sapiens), `CC(=N)NC/C(F)=C\CC[C@H](N)C(=O)O` [Example A, (2S,5E)-2-amino-6-fluoro-7-[(1-iminoethyl)amino]-5-heptenoic Acid, Dihydrochloride, Monohydrate] showed an IC50 of 100 nM. For the same compound, the 50% effective dose (ED50) is less than 0.1 mg/kg in experiment [4] (setting [6]) and less than 0.1 mg/kg in experiment [4] (Dihydrochloride, Monohydrate).

As to `N=C1CCCC[C@H](C/C=C/C[C@H](N)C(=O)O)N1` [Example BB, (2S,4E)-2-amino-6-[(2R)-hexahydro-7-imino-1H-azepin-2-yl]-4-hexenoic Acid], the IC50 was more than 25 µM in experiment [2], less than 10 µM in experiment [3] and less than 10000 nM in experiment [5].

As for `CC(=N)NC/C=C/CC(C)(N)C(=O)O` (centres unmarked) [Example CC, (E)-2-amino-2-methyl-6-[(1-iminoethyl)amino]-4-hexenoic Acid, Dihydrochloride], the IC50 in experiment [2] was determined as 29 µM; in experiment [1] (Homo sapiens) it was 500 nM; in experiment [3] it was 9.9 µM; in experiment [5], 2900 nM. Further, the median effective dose (ED50) in experiment [4] (setting [6]) is less than 3 mg/kg.

As to `CC(=N)NC/C(F)=C/CC[C@H](N)C(=O)O` [Example D, (2S,5Z)-2-amino-6-fluoro-7-[(1-iminoethyl)amino]-5-heptenoic Acid, Trihydrochloride, Dihydrate], in experiment [1] (Homo sapiens), 2500 nM corresponded to half-maximal inhibition (IC50). In experiment [4] (setting [6]), the ED50 was more than 10 mg/kg.

As for `CC(=N)NC/C=C/C[C@@](C)(N)C(=O)O` [Example DD, (R, E)-2-amino-2-methyl-6-[(1-iminoethyl)amino]-4-hexenoic Acid, Dihydrochloride], the IC50 in experiment [2] is 74 µM; in experiment [1] (Homo sapiens), 1800 nM; in experiment [3], 31 µM; in experiment [5], 10000 nM.

Take `CC(=N)NC/C=C/C[C@](C)(N)C(=O)O` [Example EE, (S, E)-2-amino-2-methyl-6-[(1-iminoethyl)amino]-4-hexenoic Acid, Dihydrochloride]: the half-maximal inhibitory concentration (IC50) in experiment [2] was 18 µM; in experiment [1] (Homo sapiens), 500 nM; in experiment [3], 5.8 µM; in experiment [5], 1400 nM. The ED50 in experiment [4] (setting [6]) amounted to 0.2 mg/kg.

Regarding `CC(=N)NCC#CCC(C)(N)C(=O)O` (centres unmarked) [Example FF, 2-amino-2-methyl-6-[(1-iminoethyl)amino]-4-hexynoic Acid, Dihydrochloride], the results for the IC50 in experiment [2], in experiment [3] and in experiment [5] were 86 µM, 45 µM and 16000 nM, respectively.

Take `CC(=N)NC/C(F)=C\CC[C@H](N)C(=O)Nc1nnn[nH]1` [Example H, (2S,5E)-2-amino-6-fluoro-7-[(1-iminoethyl)amino]-N-(1H-tetrazol-5-yl) 5-heptenamide, Dihydrochloride]: in experiment [4] (setting [6]), the median effective dose (ED50) was less than 0.3 mg/kg.

Consider `CC(=N)NC/C(F)=C\CC[C@](C)(N)C(=O)O.Cl.Cl` [Example HH, (2S,5E)-2-amino-2-methyl-6-fluoro-7-[(1-iminoethyl)amino]-5-heptenoic Acid, Dihydrochloride], for which the 50% inhibitory concentration (IC50) in experiment [2] amounted to 37 µM; in experiment [1] (Homo sapiens), 400 nM; in experiment [3], 7.6 µM; in experiment [5], 400 nM. Also, in experiment [4] (setting [6]), the 50% effective dose (ED50) came to 0.4 mg/kg.

In experiment [1], `COC[C@](N)(CSCCNC(C)=N)C(=O)O` [Example J, 2-[[[2-1(1-Iminoethyl)amino]ethyl]thiolmethyl]-O-methyl-D-serine, Dihydrochloride] displayed an IC50 of 8200 nM. That is a single-digit micromolar value.

For the compound `CC(=N)NC/C(F)=C\CC[C@@](C)(N)C(=O)O` [Example JJ, (2R,5E)-2-amino-2-methyl-6-fluoro-7-[(1-iminoethyl)amino]-5-heptenoic Acid, Dihydrochloride], the half-maximal inhibitory concentration (IC50) in experiment [2] was 352 µM; in experiment [3], 584 µM; in experiment [5], 56000 nM.

For `CC(=N)NC/C=C\CC[C@](C)(N)C(=O)O.Cl.Cl` [Example LL, (2S,5Z)-2-amino-2-methyl-7-[(1-iminoethyl)amino]-5-heptenoic Acid, Dihydrochloride], the concentration for half-maximal inhibition (IC50) amounted to 31 µM in experiment [2], 800 nM in experiment [1] (Homo sapiens), 12 µM in experiment [3] and 700 nM in experiment [5]. In addition, in experiment [4] (setting [6]), the ED50 stood at 0.3 mg/kg.

As for `CC(=N)NC/C=C\CC[C@@](C)(N)C(=O)O` [Example MM, (2R,5Z)-2-amino-2-methyl-7-[(1-iminoethyl)amino]-5-heptenoic Acid, Dihydrochloride], the IC50 in experiment [2] stood at 1930 µM; in experiment [3], 1480 µM; in experiment [5], 121000 nM.

With `CC(=N)NC/C=C\CC[C@H](N)C(=O)O` [Example T, (2S,5Z)-2-amino-7-[(1-iminoethyl)amino]-5-heptenoic Acid, Dihydrochloride], the IC50 in experiment [1] (Homo sapiens) was 100 nM.

In turn, `N=C1CCCC[C@H](CCCC[C@@H](N)C(=O)O)N1` [Example V, ([…]R,2S)-[…]-aminohexahydro-7-imino-1H-azepine-2-hexanoic Acid, Trihydrate Hydrochloride] displayed an IC50 in experiment [1] (Homo sapiens) of less than 10000 nM. The ED50 in experiment [4] (setting [6]) is less than 3 mg/kg.

On hncNOS (13 μM), `N=C1CCCC[C@@H](CCCC[C@H](N)C(=O)O)N1` [Example W, ([…]S,2R)-[…]-aminohexahydro-7-imino-1H-azepine-2-hexanoic Acid, Trihydrate Hydrochloride] had an inhibition at 13 µM of 0%. Also, the inhibition at 4.2 µM against hiNOS (21 min preincubation) turned out to be 34%; at hiNOS (60 min preincubation), 38%. The compound further came in with an IC50 in experiment [1] (Homo sapiens) of more than 30000 nM. Moreover, in experiment [4] (setting [6]), the ED50 is more than 10 mg/kg. The inhibition at 173 µM worked out at 9% at hecNOS (21 min preincubation) and 0% against hecNOS (60 min preincubation).

Turning to `N=C1CCCC[C@H](CCCC[C@H](N)C(=O)O)N1` [Example X, ([…]S,2S)-[…]-aminohexahydro-7-imino-1H-azepine-2-hexanoic Acid, Trihydrate Hydrochloride], the 50% inhibitory concentration (IC50) in experiment [1] (Homo sapiens) was less than 10000 nM.

On to `N=C1CCCC[C@H](CCCC[C@@H](N)C(=O)O)N1` [Example Y, ([…]R,2S)-[…]-aminohexahydro-7-imino-1H-azepine-2-hexanoic Acid, Trihydrate Hydrochloride], for which at 5 µM the inhibition against hncNOS (5 μM) was 0%. The results for the inhibition at 2.8 µM on hiNOS (21 min preincubation) and at hiNOS (60 min preincubation) were 75% and 76%, respectively. In experiment [1], this compound had an IC50 of less than 10000 nM. Further, the inhibition at 33 µM at hecNOS (21 min preincubation) and against hecNOS (60 min preincubation) was 11% in each case.

In turn, `N=C1CCCC[C@H](CCCC[C@H](N)C(=O)O)N1` [Example Z, ([…]S,2S)-[…]-aminohexahydro-7-imino-1H-azepine-2-hexanoic Acid, Trihydrate Hydrochloride] returned an inhibition at 3 µM on hncNOS (3 μM) of 0%. Besides, the inhibition at 2.2 µM on hiNOS (21 min preincubation) amounted to 86%; on hiNOS (60 min preincubation) it was 85%. The ED50 in experiment [4] (setting [6]) is less than 5 mg/kg. For the same compound, the inhibition at 15 µM at hecNOS (21 min preincubation) is 18%; against hecNOS (60 min preincubation) it was 16%.
